Measured values from DBAASP.
≈ marks a conversion by molar mass, not a printed value. Each block holds one molecule with its values, some of them ahead of it.

Key:
Experiment in all cases: ≥ marks a high value that may be exact or a test limit, other limits are often not marked, values filed in µg/mL are converted to µM
[1] = test system: Bacillus cereus ATCC 11778
[2] = test system: Bacillus thuringiensis ATCC 10792
[3] = test system: Enterococcus faecium CCT 5079
[4] = test system: Enterococcus hirae ATCC 10541
[5] = test system: Escherichia coli ATCC 11775
[6] = test system: Escherichia coli ATCC 25922
[7] = test system: Escherichia coli CCT 1457
[8] = test system: Micrococcus luteus ATCC 4698
[9] = test system: Pseudomonas aeruginosa ATCC 13388
[10] = test system: Pseudomonas aeruginosa ATCC 15422
[11] = test system: Salmonella enterica subsp. enterica serovar Choleraesuis ATCC 10708
[12] = test system: Salmonella enterica subsp. enterica serovar Typhimurium ATCC 14028
[13] = test system: Staphylococcus aureus ATCC 25923
[14] = test system: Staphylococcus aureus CCT 2580
[15] = test system: Staphylococcus aureus CCT 6538
[16] = test system: Staphylococcus epidermidis ATCC 12228
[17] = test system: Streptococcus mutans AU159
[18] = test system: Streptococcus pneumoniae ATCC 11733
[19] = test system: Escherichia coli BW25113 ΔsbmA
Escherichia coli BW25113 = test system: Escherichia coli BW25113
[20] = test system: Bacillus subtilis ATCC 6633
[21] = test system: Enterococcus faecium CMCC 1.2136
[22] = test system: Escherichia coli CVCC 1515
[23] = test system: Escherichia coli CVCC 195
[24] = test system: Escherichia coli O157:H7 CICC 21530
[25] = test system: Pseudomonas aeruginosa CICC 10419
[26] = test system: Pseudomonas aeruginosa CICC 21630
[27] = test system: Salmonella enterica subsp. enterica serovar Choleraesuis CVCC 503
[28] = test system: Salmonella enterica subsp. enterica serovar Enteritidis CVCC 3377
[29] = test system: Salmonella enterica subsp. enterica serovar Pullorum CVCC 1789
[30] = test system: Salmonella enterica subsp. enterica serovar Pullorum CVCC 1802
[31] = test system: Staphylococcus aureus ATCC 43300
[32] = test system: Streptococcus suis CVCC 606
[33] = test system: Escherichia coli BL21(DE3)
Pseudomonas aeruginosa = test system: Pseudomonas aeruginosa
[34] = test system: Pseudomonas aeruginosa ATCC 27853
[35] = test system: Pseudomonas aeruginosa ATCC 9027
[36] = test system: Staphylococcus aureus ATCC 19636
[37] = test system: Staphylococcus aureus ATCC 29213
[38] = test system: Bacillus subtilis VKM B-501
Escherichia coli C600 = test system: Escherichia coli C600
[39] = test system: Staphylococcus aureus 209P

MIC [1]: ≥ 85 µM
MIC [2]: ≥ 85 µM
MIC [3]: ≥ 170 µM
MIC [4]: ≥ 170 µM
MIC [5]: ≥ 340 µM
MIC [6]: 170 µM (≈ 250 µg/mL)
MIC [7]: ≥ 170 µM
MIC [8]: 10.6 µM (≈ 15.6 µg/mL)
MIC [9]: ≥ 340 µM
MIC [10]: ≥ 340 µM
MIC [12]: 340 µM (≈ 500 µg/mL)
MIC [13]: 10.9 µM (≈ 16 µg/mL)
MIC [14]: 2.72 µM (≈ 4 µg/mL)
MIC [15]: 10.9 µM (≈ 16 µg/mL)
MIC [16]: 10.9 µM (≈ 16 µg/mL)
MIC [17]: ≥ 170 µM
MIC [18]: 0.68 µM (≈ 0.999 µg/mL)
SMILES: CC[C@H](C)[C@H](N)C(=O)N[C@@H](CC(N)=O)C(=O)N[C@@H](Cc1c[nH]c2ccccc12)C(=O)N[C@@H](CC(C)C)C(=O)N[C@@H](C)C(=O)N[C@H](C(=O)N[C@@H](C)C(=O)N[C@@H](C)C(=O)N[C@@H](CCCCN)C(=O)N[C@H](C(=O)N[C@@H](C)C(=O)NCC(=O)N[C@@H](CCSC)C(=O)N[C@@H](CC(C)C)C(N)=O)C(C)C)[C@@H](C)CC [INWLAIAAKVAGML]
MIC [11]: ≥ 340 µM

MIC [19]: 8 µM (≈ 24.8 µg/mL)
MIC (Escherichia coli BW25113): 1 µM (≈ 3.1 µg/mL)
SMILES: CC[C@H](C)[C@H](NC(=O)[C@@H]1CCCN1C(=O)[C@@H]1CCCN1C(=O)[C@H](CCCN=C(N)N)NC(=O)[C@H](Cc1ccccc1)NC(=O)[C@@H](N)CCCN=C(N)N)C(=O)N[C@@H](CCCN=C(N)N)C(=O)N[C@@H](CCCN=C(N)N)C(=O)N1CCC[C@H]1C(=O)N1CCC[C@H]1C(=O)N[C@H](C(=O)N[C@@H](CCCN=C(N)N)C(=O)N1CCC[C@H]1C(=O)N1CCC[C@H]1C(=O)N[C@@H](Cc1ccccc1)C(=O)N[C@@H](CCCN=C(N)N)C(=O)N1CCC[C@H]1C(=O)N1CCC[C@H]1C(=O)N[C@@H](Cc1ccccc1)C(=O)N[C@@H](CCCN=C(N)N)C(=O)N1CCC[C@H]1C(=O)N1CCC[C@H]1C(=O)N[C@H](C(=O)N[C@@H](CCCN=C(N)N)C(=O)N1CCC[C@H]1C(=O)O)C(C)C)[C@@H](C)CC [RFRPPIRRPPIRPPFRPPFRPPVRP]

MIC [20]: 1.66 µM (≈ 4 µg/mL)
MIC [21]: 6.63 µM (≈ 16 µg/mL)
MIC [22]: 6.63 µM (≈ 16 µg/mL)
MIC [23]: 13.3 µM (≈ 32 µg/mL)
MIC [24]: 6.63 µM (≈ 16 µg/mL)
MIC [25]: ≥ 53 µM
MIC [26]: ≥ 53 µM
MIC [28]: 0.414 µM (≈ 1 µg/mL)
MIC [29]: ≥ 53 µM
MIC [30]: 13.3 µM (≈ 32 µg/mL)
MIC [12]: > 26.5 µM
MIC [13]: 0.829 µM (≈ 2 µg/mL)
MIC [31]: > 26.5 µM
MIC [32]: ≥ 53 µM
SMILES: CC(C)[C@H](NC(=O)CNC(=O)[C@H](CC(N)=O)NC(=O)[C@H](CCCN=C(N)N)NC(=O)[C@H](Cc1ccc(O)cc1)NC(=O)[C@@H](NC(=O)[C@H](C)NC(=O)[C@@H](NC(=O)[C@H](CC(N)=O)NC(=O)[C@H](Cc1c[nH]c2ccccc12)NC(=O)[C@H](C)NC(=O)[C@H](Cc1ccccc1)NC(=O)CN)C(C)C)C(C)C)C(=O)N[C@@H](CCCN=C(N)N)C(=O)N[C@H](C(=O)N[C@@H](C)C(=O)N[C@@H](Cc1cnc[nH]1)C(=O)N[C@@H](CCCN=C(N)N)C(=O)N[C@@H](CCCN=C(N)N)C(=O)N[C@@H](C)C(=O)N[C@@H](CC(N)=O)C(=O)O)C(C)C [GFAWNVAVYRNGVRVAHRRAN]
MIC [27]: 26.5 µM (≈ 64 µg/mL)

MIC [33]: 0.2 µM (≈ 0.344 µg/mL)
MIC (Pseudomonas aeruginosa): 2.5 µM (≈ 4.3 µg/mL)
MIC [16]: 0.025 µM (≈ 0.043 µg/mL)
SMILES: CC[C@H](C)[C@H](NC(=O)[C@@H]1CCCN1C(=O)[C@H](CC(C)C)NC(=O)[C@H](CC(C)C)NC(=O)[C@H](CCCCN)NC(=O)[C@@H](N)CCCCN)C(=O)N[C@H](C(=O)N[C@@H](CCCCN)C(=O)N[C@@H](CC(N)=O)C(=O)N[C@@H](CC(C)C)C(=O)N[C@@H](CC(C)C)C(=O)N[C@@H](CCCCN)C(=O)N[C@@H](CO)C(=O)N[C@@H](CC(C)C)C(=O)N[C@@H](CC(C)C)C(=O)O)C(C)C [KKLLPIVKNLLKSLL]

MIC [6]: 1.78 µM (≈ 3.1 µg/mL)
MIC [34]: 0.918 µM (≈ 1.6 µg/mL)
MIC [35]: 1.78 µM (≈ 3.1 µg/mL)
MIC [36]: 0.918 µM (≈ 1.6 µg/mL)
MIC [13]: 7.17 µM (≈ 12.5 µg/mL)
MIC [37]: 7.17 µM (≈ 12.5 µg/mL)
SMILES: CC(C)C[C@H](NC(=O)[C@H](Cc1c[nH]c2ccccc12)NC(=O)[C@H](CCCCN)NC(=O)[C@H](CC(C)C)NC(=O)[C@H](Cc1c[nH]c2ccccc12)NC(=O)[C@H](C)NC(=O)[C@H](CCCN=C(N)N)NC(=O)[C@H](Cc1c[nH]c2ccccc12)NC(=O)[C@H](CCCCN)NC(=O)[C@@H](N)CCCCN)C(=O)N[C@@H](C)C(=O)N[C@@H](CCCCN)C(=O)N[C@@H](CCCCN)C(=O)O [KKWRAWLKWLAKK]

MIC [38]: 0.7 µM (≈ 2.02 µg/mL)
MIC (Escherichia coli C600): 6 µM (≈ 17.3 µg/mL)
MIC [39]: 18 µM (≈ 51.9 µg/mL)
SMILES: CC[C@H](C)[C@H](NC(=O)[C@H](C)NC(=O)[C@H](CCCCN)NC(=O)[C@H](CCCN=C(N)N)NC(=O)CNC(=O)[C@H](CCCCN)NC(=O)[C@H](CCCCN)NC(=O)[C@H](CCCCN)NC(=O)[C@@H](NC(=O)[C@H](CC(C)C)NC(=O)[C@H](CCCCN)NC(=O)CNC(=O)[C@H](Cc1ccccc1)NC(=O)[C@H](CC(C)C)NC(=O)CN)[C@@H](C)CC)C(=O)N[C@@H](CO)C(=O)N[C@@H](Cc1ccc(O)cc1)C(=O)N[C@@H](C)C(=O)N[C@H](C(=O)N[C@@H](CCCCN)C(=O)N[C@@H](CCCCN)C(=O)N[C@@H](C)C(=O)N[C@@H](CCCN=C(N)N)C(=O)NCC(=O)N[C@@H](CCCCN)C(=O)N[C@@H](Cc1cnc[nH]1)C(=O)O)C(C)C [GLFGKLIKKKGRKAISYAVKKARGKH]
